Patent publication US9944645B2, “Imidazotriazines and imidazopyrimidines as kinase inhibitors” (Incyte Holdings Corporation, priority 2006, dated 2018)

Target: c-Met kinase (h-Met; histidine-tagged c-Met catalytic domain fusion protein) (Homo sapiens (Human), UniProt P08581)
Test: In Vitro c-Met Kinase Enzyme Assays
Assay type: biochemical
Details: phosphorylation of poly Glu-Tyr, 5 μM ATP, 25 minutes at 30° C.
Description: Compounds were screened in vitro for their ability to inhibit c-Met kinase activity. […] Briefly, histidine-tagged c-Met catalytic domain fusion protein (Invitrogen, #PV3143) was used for the assay. […] The reaction lasted for 25 minutes at 30° C. After the reaction was completed, the contents of the plates was discarded. Plates were then washed with TBS-T (250 μL/well, 5×) and then blocked with TBS-T containing 1% BSA for 2 hours. The contents of the plates was discarded, and 100 μL (per well) of peroxidase-labeled anti-phospho-tyrosine antibody (Sigma, #A5964) diluted (1:60,000) in 1% BSA containing TBS-T were then added and incubated for 1 hour. Plates were washed with TBS-T ([…], 5×) and followed by the color reaction using 100 μL (1:1 mixture) of H2O2 and tetramethylbenzidine (R&D Systems, #DY999). The reaction was stopped in minutes with 100 μL of 2 N H2SO4. The optical density was measured immediately using a microplate reader at 450 nm with wavelength correction at 540 nm. IC50 values were calculated with the GraphPad Prism software. The linear range (i.e., the time period over which the rate remained equivalent to the initial rate) was determined for the kinase and IC50 determinations were performed within this range.

c-Met kinase (h-Met; histidine-tagged c-Met catalytic domain fusion protein), sequence (P08581 1078-1345): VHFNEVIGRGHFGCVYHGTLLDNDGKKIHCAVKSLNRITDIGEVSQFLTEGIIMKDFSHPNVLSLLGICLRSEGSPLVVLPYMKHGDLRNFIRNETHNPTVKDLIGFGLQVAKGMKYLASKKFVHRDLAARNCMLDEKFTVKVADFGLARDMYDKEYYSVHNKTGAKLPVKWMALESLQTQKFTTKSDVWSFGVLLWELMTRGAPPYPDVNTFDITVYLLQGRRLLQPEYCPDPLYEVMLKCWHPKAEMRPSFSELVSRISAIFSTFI

Compound	IC50 [nM]
O=C(NC1CCN(c2ccccn2)C1)c1ccc(-c2cnc3ncc(C4(c5ccc6ncccc6c5)CC4)n3c2)cc1 (centres unmarked) [Example 37, N-(1-Pyridin-2-ylpyrrolidin-3-yl)-4-[3-(1-quinolin-6-ylcyclopropyl)imidazo[1,2-a]pyrimidin-6-yl]benzamide]	< 500
O=C(c1ccc(-c2cnc3ncc(C4(c5ccc6ncccc6c5)CC4)n3c2)cc1)N1CCC(c2ccccn2)C1 (centres unmarked) [Example 38, 6-[1-(6-{4-[(3-Pyridin-2-ylpyrrolidin-1-yl)carbonyl]phenyl}imidazo[1,2-a]pyrimidin-3-yl)cyclopropyl]quinoline]	< 500
O=C(c1ccc(-c2cnc3ncc(C4(c5ccc6ncccc6c5)CC4)n3c2)cc1)N1CC[C@H](Oc2ccccn2)C1 [Example 39, 6-{1-[6-(4-[(3S)-3-(Pyridin-2-yloxy)pyrrolidin-1-yl]carbonylphenyl)imidazo[1,2-a]pyrimidin-3-yl]cyclopropyl}quinoline]	< 500
O=C(NCCOc1ccccn1)c1ccc(-c2cnc3ncc(C4(c5ccc6ncccc6c5)CC4)n3c2)cc1 [Example 40, N-[2-(Pyridin-2-yloxy)ethyl]-4-[3-(1-quinolin-6-ylcyclopropyl)imidazo[1,2-a]pyrimidin-6-yl]benzamide]	< 500
CC(COc1ccccn1)NC(=O)c1ccc(-c2cnc3ncc(C4(c5ccc6ncccc6c5)CC4)n3c2)cc1 (centres unmarked) [Example 41, N-[1-Methyl-2-(pyridin-2-yloxy)ethyl]-4-[3-(1-quinolin-6-ylcyclopropyl)imidazo[1,2-a]pyrimidin-6-yl]benzamide]	< 500
O=C(NCCOc1ccccc1)c1ccc(-c2cnc3ncc(C4(c5ccc6ncccc6c5)CC4)n3c2)cc1 [Example 42, N-(2-Phenoxyethyl)-4-[3-(1-quinolin-6-ylcyclopropyl)imidazo[1,2-a]pyrimidin-6-yl]benzamide]	< 500
CNC(=O)[C@@H](NC(=O)c1ccc(-c2cnc3ncc(C4(c5ccc6ncccc6c5)CC4)n3c2)cc1)C(C)(C)C [Example 43, N-(1S)-2,2-Dimethyl-1-[(methylamino)carbonyl]propyl-4-[3-(1-quinolin-6-ylcyclopropyl)imidazo[1,2-a]pyrimidin-6-yl]benzamide]	< 500
CN(C)C(=O)[C@@H](NC(=O)c1ccc(-c2cnc3ncc(C4(c5ccc6ncccc6c5)CC4)n3c2)cc1)C(C)(C)C [Example 44, N-(1S)-1-[(Dimethylamino)carbonyl]-2,2-dimethylpropyl-4-[3-(1-quinolin-6-ylcyclopropyl)imidazo[1,2-a]pyrimidin-6-yl]benzamide]	< 500
CC(C)(C)[C@H](NC(=O)c1ccc(-c2cnc3ncc(C4(c5ccc6ncccc6c5)CC4)n3c2)cc1)C(=O)N1CCC1 [Example 45, N-[(1S)-1-(Azetidin-1-ylcarbonyl)-2,2-dimethylpropyl]-4-[3-(1-quinolin-6-ylcyclopropyl)imidazo[1,2-a]pyrimidin-6-yl]benzamide]	< 500
O=C(NC1CC1)c1cccc(-c2cnc3ncc(C4(c5ccc6ncccc6c5)CC4)n3c2)c1 [Example 46, N-Cyclopropyl-3-[3-(1-quinolin-6-ylcyclopropyl)imidazo[1,2-a]pyrimidin-6-yl]benzamide]	< 500
O=C(NCc1ccccn1)c1cccc(-c2cnc3ncc(C4(c5ccc6ncccc6c5)CC4)n3c2)c1 [Example 47, N-(Pyridin-2-ylmethyl)-3-[3-(1-quinolin-6-ylcyclopropyl)imidazo[1,2-a]pyrimidin-6-yl]benzamide]	< 500

The remaining lines, values ahead:

IC50 [nM]	Compound
< 500	CN(C)C(=O)c1cccc(-c2cnc3ncc(C4(c5ccc6ncccc6c5)CC4)n3c2)c1 [Example 48, N,N-Dimethyl-3-[3-(1-quinolin-6-ylcyclopropyl)imidazo[1,2-a]pyrimidin-6-yl]benzamide]
< 500	CNC(=O)c1cccc(-c2cnc3ncc(C4(c5ccc6ncccc6c5)CC4)n3c2)c1 [Example 49, N-Methyl-3-[3-(1-quinolin-6-ylcyclopropyl)imidazo[1,2-a]pyrimidin-6-yl]benzamide]
< 500	CNC(=O)[C@H](C)NC(=O)c1ccc(-c2cnc3ncc(C4(c5ccc6ncccc6c5)CC4)n3c2)cc1 [Example 50, N-[(1S)-1-Methyl-2-(methylamino)-2-oxoethyl]-4-[3-(1-quinolin-6-ylcyclopropyl)imidazo[1,2-a]pyrimidin-6-yl]benzamide]
< 500	CNC(=O)[C@@H](C)NC(=O)c1ccc(-c2cnc3ncc(C4(c5ccc6ncccc6c5)CC4)n3c2)cc1 [Example 51, N-[(1R)-1-Methyl-2-(methylamino)-2-oxoethyl]-4-[3-(1-quinolin-6-ylcyclopropyl)imidazo[1,2-a]pyrimidin-6-yl]benzamide]
< 500	COC(=O)N1CCN(c2ccc(-c3cnc4ncc(C5(c6ccc7ncccc7c6)CC5)n4c3)cn2)CC1 [Example 53, Methyl 4-{5-[3-(1-quinolin-6-ylcyclopropyl)imidazo[1,2-a]pyrimidin-6-yl]pyridin-2-yl}piperazine-1-carboxylate]
< 500	CS(=O)(=O)N1CCN(c2ccc(-c3cnc4ncc(C5(c6ccc7ncccc7c6)CC5)n4c3)cn2)CC1 [Example 54, 6-[1-(6-{6-[4-(Methylsulfonyl)piperazin-1-yl]pyridin-3-yl}imidazo[1,2-a]pyrimidin-3-yl)cyclopropyl]quinoline]
< 500	CN(C)C(=O)N1CCN(c2ccc(-c3cnc4ncc(C5(c6ccc7ncccc7c6)CC5)n4c3)cn2)CC1 [Example 55, N,N-Dimethyl-4-{5-[3-(1-quinolin-6-ylcyclopropyl)imidazo[1,2-a]pyrimidin-6-yl]pyridin-2-yl}piperazine-1-carboxamide]
< 500	CC(C)[C@H](NC(=O)c1ccc(-c2cnc3ncc(C4(c5ccc6ncccc6c5)CC4)n3c2)cc1)C(=O)N(C)C [Example 56, N-(1S)-1-[(Dimethylamino)carbonyl]-2-methylpropyl-4-[3-(1-quinolin-6-ylcyclopropyl)imidazo[1,2-a]pyrimidin-6-yl]benzamide]
< 500	CN(C)C(=O)C1(NC(=O)c2ccc(-c3cnc4ncc(C5(c6ccc7ncccc7c6)CC5)n4c3)cc2)CCC1 [Example 57, N-1-[(Dimethylamino)carbonyl]cyclobutyl-4-[3-(1-quinolin-6-ylcyclopropyl)imidazo[1,2-a]pyrimidin-6-yl]benzamide]
< 500	CC(C)(C)[C@H](NC(=O)c1ccc(-c2cnc3ncc(C4(c5ccc6ncccc6c5)CC4)n3c2)cn1)C(=O)N1CCC1 [Example 58, N-[(1S)-1-(Azetidin-1-ylcarbonyl)-2,2-dimethylpropyl]-5-[3-(1-quinolin-6-ylcyclopropyl)imidazo[1,2-a]pyrimidin-6-yl]pyridine-2-carboxamide]
< 500	CNC(=O)[C@@H](NC(=O)c1ccc(-c2cnc3ncc(C4(c5ccc6ncccc6c5)CC4)n3c2)cn1)C(C)(C)C [Example 59, N-(1S)-2,2-Dimethyl-1-[(methylamino)carbonyl]propyl-5-[3-(1-quinolin-6-ylcyclopropyl)imidazo[1,2-a]pyrimidin-6-yl]pyridine-2-carboxamide]
< 500	CC(C)(C)[C@H](NC(=O)c1ccc(-c2cnc3ncc(C4(c5ccc6ncccc6c5)CC4)n3c2)cn1)C(=O)NC1CC1 [Example 60, N-(1S)-1-[(Cyclopropylamino)carbonyl]-2,2-dimethylpropyl-5-[3-(1-quinolin-6-ylcyclopropyl)imidazo[1,2-a]pyrimidin-6-yl]pyridine-2-carboxamide]
